Blank lines part the entries; values can stand above or below the compound they belong to. Activity calls are given as the source filed them. The rule behind the calls is not given here.
What was measured:
[1] = target: T1, Exportin-1 (Homo sapiens, UniProt O14980); assay: Inhibition of CRM1 (unknown origin) binding to GST-tagged NES PKI assessed as CRM1/NES band ratio incubated for 1.5 hrs by Coomassie brilliant blue staining based pull-down assay (reference value: 1.00); design: concentration or dose not given beside the values
T1 sequence (O14980 whole entry): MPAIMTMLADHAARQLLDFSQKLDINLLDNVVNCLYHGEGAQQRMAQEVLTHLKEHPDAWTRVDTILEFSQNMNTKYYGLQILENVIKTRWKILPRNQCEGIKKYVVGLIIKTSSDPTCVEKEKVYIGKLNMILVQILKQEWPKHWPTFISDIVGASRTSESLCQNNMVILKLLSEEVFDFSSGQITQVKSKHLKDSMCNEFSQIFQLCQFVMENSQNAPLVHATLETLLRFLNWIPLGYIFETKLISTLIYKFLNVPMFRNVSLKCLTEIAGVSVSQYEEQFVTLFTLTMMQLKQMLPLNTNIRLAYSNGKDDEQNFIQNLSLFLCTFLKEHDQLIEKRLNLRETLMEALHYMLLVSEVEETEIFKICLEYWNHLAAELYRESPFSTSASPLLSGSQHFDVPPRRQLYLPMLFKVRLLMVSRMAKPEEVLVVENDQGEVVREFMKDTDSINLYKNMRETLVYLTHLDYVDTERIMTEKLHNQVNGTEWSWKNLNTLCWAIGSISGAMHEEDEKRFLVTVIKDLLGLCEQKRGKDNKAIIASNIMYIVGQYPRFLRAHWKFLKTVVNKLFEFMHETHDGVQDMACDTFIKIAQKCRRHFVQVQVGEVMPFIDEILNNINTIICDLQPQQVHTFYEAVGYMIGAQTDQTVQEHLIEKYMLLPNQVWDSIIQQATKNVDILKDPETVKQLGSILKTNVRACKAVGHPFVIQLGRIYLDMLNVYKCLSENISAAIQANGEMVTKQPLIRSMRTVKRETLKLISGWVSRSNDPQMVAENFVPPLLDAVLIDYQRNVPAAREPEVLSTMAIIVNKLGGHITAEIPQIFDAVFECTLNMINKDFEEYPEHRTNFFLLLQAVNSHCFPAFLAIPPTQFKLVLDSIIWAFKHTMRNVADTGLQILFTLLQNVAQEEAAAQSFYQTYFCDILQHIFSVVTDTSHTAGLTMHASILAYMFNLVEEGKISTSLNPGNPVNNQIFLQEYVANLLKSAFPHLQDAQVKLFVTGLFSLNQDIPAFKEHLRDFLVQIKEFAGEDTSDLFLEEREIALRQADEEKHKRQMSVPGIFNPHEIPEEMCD

[2] = target: T1, Exportin-1; assay: Inhibition of CRM1 (unknown origin) binding to GST-tagged NES PKI at 100 uM incubated for 2 hrs in presence of DTT by Coomassie brilliant blue staining based pull-down assay
[3] = target: T1, Exportin-1; assay: Inhibition of CRM1 (unknown origin) binding to GST-tagged NES PKI at 100 uM incubated for 1.5 hrs by Coomassie brilliant blue staining based pull-down assay
[4] = target: T1, Exportin-1; assay: Inhibition of GFP-fused CRM1 cargo nuclear export in human HeLa cells at 200 uM incubated for 4 hrs by confocal microscopic analysis; format: cell-based
[5] = target: T1, Exportin-1; assay: Binding affinity to CRM1 (unknown origin) assessed as inhibition of CRM1 binding to IAF-conjugated NES PKI by measuring dissociation constant in the presence of RanGTP by competitive MST analysis
[6] = target: T1, Exportin-1; assay: Inhibition of CRM1 cargo nuclear export in human A549 cells at 50 uM incubated for 4 hrs by confocal microscopic analysis; format: cell-based
[7] = system: A549; assay: Induction of apoptosis in human A549 cells assessed as PARP-1 cleavage at 50 uM incubated for 18 hrs by Western blot analysis; format: functional, cell-based
[8] = system: Ishikawa; assay: Antiproliferative activity against human Ishikawa cells assessed as inhibition of cell growth at 20 uM incubated for 72 hrs by SRB assay; format: functional, cell-based
[9] = system: A549; assay: Induction of apoptosis in human A549 cells at 50 uM incubated for 18 hrs by Annexin V-FITC/PI staining based flow cytometric analysis; format: functional, cell-based
[10] = system: PANC-1; assay: Antiproliferative activity against human PANC-1 cells assessed as inhibition of cell growth at 20 uM incubated for 72 hrs by SRB assay; format: functional, cell-based
[11] = system: OVCAR-8; assay: Antiproliferative activity against human OVCAR-8 cells assessed as inhibition of cell growth at 20 uM incubated for 72 hrs by SRB assay; format: functional, cell-based
[12] = target: T1, Exportin-1; assay: Inhibition of CRM1 cargo nuclear export in digitonin-permeabilized human HeLa cells at 50 uM incubated for 4 hrs by confocal microscopic analysis; format: cell-based
[13] = system: MCF7; assay: Antiproliferative activity against human MCF7 cells assessed as inhibition of cell growth at 20 uM incubated for 72 hrs by SRB assay; format: functional, cell-based
[14] = system: A549; assay: Induction of apoptosis in human A549 cells assessed as caspase-3 cleavage at 50 uM incubated for 18 hrs by Western blot analysis; format: functional, cell-based
[15] = system: A549; assay: Induction of apoptosis in human A549 cells assessed as activation of phosphorylated JNK at 50 uM incubated for 18 hrs by Western blot analysis; format: functional, cell-based
[16] = target: T1, Exportin-1; assay: Binding affinity to CRM1 in human HeLa assessed as thermal stabilization at 20 uM incubated at 60 to 84 degreeC for 3 mins by CETSA based Western blot analysis; format: cell-based
[17] = system: HepG2; assay: Antiproliferative activity against human HepG2 cells assessed as inhibition of cell growth at 20 uM incubated for 72 hrs by SRB assay; format: functional, cell-based
[18] = system: SW480; assay: Antiproliferative activity against human SW480 cells assessed as inhibition of cell growth at 20 uM incubated for 72 hrs by SRB assay; format: functional, cell-based
[19] = system: MDA-MB-453; assay: Antiproliferative activity against human MDA-MB-453 cells assessed as inhibition of cell growth at 20 uM incubated for 72 hrs by SRB assay; format: functional, cell-based
[20] = Solubility of the compound in water; format: physicochemical
[21] = system: HeLa; assay: Antiproliferative activity against human HeLa cells assessed as inhibition of cell growth incubated for 72 hrs by SRB assay; format: functional, cell-based
[22] = system: HeLa; assay: Antiproliferative activity against human HeLa cells assessed as inhibition of cell growth at 20 uM incubated for 72 hrs by SRB assay; format: functional, cell-based
[23] = target: T1, Exportin-1; assay: Inhibition of CRM1 cargo nuclear export in human MCF7 cells at 50 uM incubated for 4 hrs by confocal microscopic analysis; format: cell-based
[24] = system: A549; assay: Antiproliferative activity against human A549 cells assessed as inhibition of cell growth at 20 uM incubated for 72 hrs by SRB assay; format: functional, cell-based
[25] = Cytotoxicity against HEK293T cells assessed as inhibition of cell growth incubated for 72 hrs by SRB assay; format: toxicity, cell-based, HEK-293T; details: human
[26] = system: A549; assay: Inhibition of colony formation in human A549 cells at 40 uM incubated for 48 hrs by crystal violet staining based analysis relative to control; format: functional
[27] = system: HuCCT-1; assay: Antiproliferative activity against human HuCCT-1 cells assessed as inhibition of cell growth at 20 uM incubated for 72 hrs by SRB assay; format: functional, cell-based
[28] = system: A549; assay: Inhibition of colony formation in human A549 cells at 20 uM incubated for 48 hrs by crystal violet staining based analysis; format: functional, cell-based
[29] = system: Exportin-1 (Homo sapiens), O14980 [C528S]; assay: Inhibition of human CRM1 C528S mutant nuclear export transfected in human MCF7 cells at 50 uM incubated for 4 hrs by confocal microscopic analysis; format: cell-based
Exportin-1 (Homo sapiens), O14980 [C528S], sequence (O14980 whole entry C528S): as the sequence (O14980 whole entry) above, with C528S counted along it

[30] = system: A2780; assay: Antiproliferative activity against human A2780 cells assessed as inhibition of cell growth at 20 uM incubated for 72 hrs by SRB assay; format: functional, cell-based
[31] = target: T1, Exportin-1; assay: Non-covalent inhibition of CRM1 (unknown origin) binding to GST-tagged NES PKI at 20 uM incubated for 2 hrs in presence of DTT by Coomassie brilliant blue staining based pull-down assay
[32] = system: MOLT-4; assay: Antiproliferative activity against human MOLT-4 cells assessed as inhibition of cell growth incubated for 72 hrs by CellTiter Glo assay; format: functional, cell-based; details: MOLT-4, 72 h, pooled result: one value given for 6 cell lines, strains, targets or settings
[33] = target: T1, Exportin-1; assay: Covalent inhibition of CRM1 (unknown origin) binding to GST-tagged NES PKI at 20 uM incubated for 2 hrs in presence of DTT by Coomassie brilliant blue staining based pull-down assay
[34] = Toxicity in mouse at 100 mg/kg, ip administered for 2 weeks; format: organism-based; details: in vivo, 336 h
[35] = Toxicity in mouse assessed as body weight loss at 100 mg/kg, ip administered for 2 weeks; format: organism-based; details: in vivo, 336 h
[36] = system: HCT-116; assay: Antiproliferative activity against human HCT-116 cells assessed as inhibition of cell growth incubated for 1 hrs by CellTiter Glo assay; format: functional, cell-based; details: HCT-116, 1 h
[37] = system: HCT-116; assay: Antiproliferative activity against human HCT-116 cells assessed as inhibition of cell growth incubated for 72 hrs by CellTiter Glo assay; format: functional, cell-based; details: HCT-116, 72 h
[38] = system: SiHa; assay: Antiproliferative activity against human SiHa cells assessed as inhibition of cell growth incubated for 72 hrs by CellTiter Glo assay; format: functional, cell-based
[39] = system: SK-N-SH; assay: Antiproliferative activity against human SK-N-SH cells assessed as inhibition of cell growth incubated for 1 hrs by CellTiter Glo assay; format: functional, cell-based
[40] = system: SiHa; assay: Antiproliferative activity against human SiHa cells assessed as inhibition of cell growth incubated for 1 hrs by CellTiter Glo assay; format: functional, cell-based
[41] = system: SK-N-SH; assay: Antiproliferative activity against human SK-N-SH cells assessed as inhibition of cell growth incubated for 72 hrs by CellTiter Glo assay; format: functional, cell-based

- Ratio [1]: 0.02
- inhibition [2]: Active
- inhibition [3]: Active
- inhibition [4]: inactive
- Kd [5]: 12000 nM
Compound: Cc1ccc(C)c(N2CCN(c3ccc(C(=O)O)cc3NC(=O)c3ccc(Cl)cc3)CC2)c1

- inhibition [6]: Active
- inhibition [12]: Active
- Activity [16]: Active
- solubility [20]: < 0.14 µg/mL
- IC50 [21]: 10200 nM
- inhibition [23]: Active
- inhibition [29]: inactive
- Kd [5]: 1600 nM
Compound: O=C(O)c1ccc(N2CCN(c3cc(C(F)(F)F)cc(C(F)(F)F)c3)CC2)c(NC(=O)c2ccc(Br)cc2)c1
- Activity [7]: Active
- Activity [8]: Active
- Activity [9]: Active
- Activity [10]: Active
- Activity [11]: Active
- Activity [13]: Active
- Activity [14]: Active
- Activity [15]: Active
- Activity [17]: Active
- Activity [18]: Active
- Activity [19]: Active
- Activity [22]: Active
- Activity [24]: Active
- IC50 at 72 h [25]: 30900 nM
- inhibition at 40 µM [26]: 100%
- Activity [27]: Active
- inhibition [28]: Active
- Activity [30]: Active

- inhibition [6]: Active
- inhibition [12]: Active
- Activity [16]: Active
- solubility [20]: < 0.14 µg/mL
- IC50 [21]: 14600 nM
- inhibition [23]: Active
- inhibition [29]: inactive
- Kd [5]: 3600 nM
Compound: O=C(O)c1ccc(N2CCN(c3cc(C(F)(F)F)ccc3C(F)(F)F)CC2)c(NC(=O)c2ccc(Cl)cc2)c1
- Activity [7]: Active
- Activity [8]: Active
- Activity [9]: Active
- Activity [10]: Active
- Activity [11]: Active
- Activity [13]: Active
- Activity [14]: Active
- Activity [15]: Active
- Activity [34]: Non-Toxic
- Activity [17]: Active
- Activity [18]: Active
- Activity [19]: Active
- Activity [22]: Active
- Activity [35]: Non-Toxic
- Activity [24]: Active
- IC50 at 72 h [25]: 39000 nM
- inhibition at 40 µM [26]: 100%
- Activity [27]: Active
- inhibition [28]: Active
- Activity [30]: Active

- inhibition [6]: Active
- inhibition [12]: Active
- Activity [16]: Active
- solubility [20]: < 0.14 µg/mL
- IC50 [21]: 15200 nM
- inhibition [23]: Active
- inhibition [29]: inactive
- Kd [5]: 1800 nM
Compound: O=C(O)c1ccc(N2CCN(c3cc(C(F)(F)F)ccc3C(F)(F)F)CC2)c(NC(=O)c2ccc(Br)cc2)c1
- Activity [7]: Active
- Activity [8]: Active
- Activity [9]: Active
- Activity [10]: Active
- Activity [11]: Active
- Activity [13]: Active
- Activity [14]: Active
- Activity [15]: Active
- Activity [17]: Active
- Activity [18]: Active
- Activity [19]: Active
- Activity [22]: Active
- Activity [24]: Active
- IC50 at 72 h [25]: 40400 nM
- inhibition at 40 µM [26]: 100%
- Activity [27]: Active
- inhibition [28]: Active
- Activity [30]: Active

Continued, compound first:

Compound: CC(C)CCNC/C=C/[S+]([O-])c1cc(C(F)(F)F)cc(C(F)(F)F)c1 (stereo unspecified)
- inhibition [31]: inactive

Compound: O=C(/C=C\n1cnc(-c2cc(C(F)(F)F)cc(C(F)(F)F)c2)n1)NNc1cnccn1 [SELINEXOR]
- IC50 [21]: 430 nM
- IC50 [32]: 34 nM
- IC50 at 72 h [25]: 730 nM
- inhibition [33]: inactive

Compound: CCC(=C/[C@H](C)C/C=C/C(C)=C/[C@@H](C)C(=O)[C@@H](C)[C@H](O)[C@@H](C)C/C(C)=C/C(=O)O)/C=C/[C@@H]1OC(=O)C=C[C@@H]1C [LEPTOMYCIN B]
- IC50 [36]: 0.3 nM
- IC50 [37]: 0.3 nM
- IC50 [38]: 0.3 nM
- IC50 [39]: 0.3 nM
- IC50 [40]: 0.3 nM
- IC50 [41]: 0.3 nM

From ChEMBL document CHEMBL5376006, “Discovery of a Hidden Pocket beneath the NES Groove by Novel Noncovalent CRM1 Inhibitors” (J Med Chem, 2023)
